Our source for the Km and stoichiometry N values is article PMC9197883, “Treatment with Polyethylene Glycol–Conjugated Fungal D-Amino Acid Oxidase Reduces Lung Inflammation in a Mouse Model of Chronic Granulomatous Disease” (Inflammation, 2022).

The test system of experiment [1] is T1, fDAO / PEG-fDAO.
T1 construct: gene DAO; DAO from Fusarium spp. supplied by Ikeda Food Research; tetramer 165 kDa; PEG conjugate (five PEG chains, succinimide-PEG ME-020CS) 206 kDa
In words: HRP-coupled o-dianisidine assay of H2O2 formation, nonlinear fit. The format is biochemical. The following applies: pH 6.5; 25 °C; enzyme form not stated beside the value, most likely PEG-conjugated (PEG-fDAO).

Experiment [2] concerns the target D-amino acid oxidase isolated from Fusarium spp. (Fusarium spp.) (UniProt P24552). Kind of experiment: not stated; fDAO in 'the physiological solution used for testing'; how the oligomeric state was found is not told.

As to `N[C@H](Cc1ccccc1)C(=O)O` [D-phenylalanine], in experiment [1], the Michaelis-Menten constant (Km) (in general, the concentration of substrate that gives half-maximal velocity) is 220 µM.

For “D-amino acid oxidase isolated from Fusarium spp. (from UniProt P24552 23-361) (enzyme)”, in experiment [2], the stoichiometry N (usually a count of units in the complex or per binding partner) was 4.
